The subject of series [1] is formalin-induced nociceptive response, mice. The series is described as follows: Formalin test of tonic pain. The class given is in vivo. Conditions: for ED50: Mus musculus, ip, i.p. 30 min before test. The protocol:
AEDs are also commonly used in the treatment of neuropathic pain and other central pain conditions. Therefore, with an aim of further pharmacological characterization of compounds described herein, we decided to study their antinociceptive properties in the in vivo assays. […] At first, both aforementioned compounds were tested in the formalin-induced tonic pain model, which is recognized as a valuable screening tool. In this test, the injection of formalin into the plantar surface of the mouse paw produces specific behaviors like paw lifting, flinching, and licking. […] Moreover, it has been reported that formalin induces pathological changes that resemble those observed in nerve injury and neuropathic pain [24]. Thus, this test has been successfully used to assess the analgesic efficacy of a variety of compounds such as opioids, nonsteroidal anti-inflammatory drugs (NSAIDs), corticosteroids, and N-methyl-D-aspartate (NMDA) receptor antagonists, as well as AEDs such as carbamazepine, topiramate, or gabapentin [26, 27].
As mentioned above, we investigated the analgesic properties of two of the most promising and interesting compounds: 4 and 30.
(§1) The experimental groups consisted of 6–12 adult male Albino Swiss mice (CD-1, 18–25 g). Each animal was tested only once. Immediately after the assay, the animals were sacrificed by cervical dislocation. Behavioral measurements were observed by trained observers. The in vivo antinociceptive assays were in accordance with Polish regulations and European Union Directive of 22 September 2010 (2010/63/EU). All procedures were carried out according to the rules of the International Council on Laboratory Animal Science (ICLAS) and were approved by the Local Ethical Committee in Cracow, Poland (approval No 104/2015, 111/2016, and 179/2017). The tested substances were suspended in 1% aqueous solution of Tween-80 and were injected i.p. 30 min prior to the test. Control group animals (negative control) were administered with an appropriate amount of vehicle (Tween-80, 1% aqueous solution, i.p.) 30 min prior to the test.
The experimental in vivo procedures were previously reported for the formalin test; compounds 4 and 30 were tested in three doses—40, 80, 120 mg/kg (4), and 20, 40, 80 mg/kg (30). […] The in vivo procedure for the model of capsaicin-induced nociception was previously reported; the animals were pretreated with vehicle (10 mL/kg, negative control) and the dose–response of investigated compounds was evaluated at 40, 80, 120 mg/kg (4), and 20, 40, 80 mg/kg (30). […]
Data are presented as means ± standard error of the mean (SEM). […] Statistically significant differences between groups were calculated using one-way analysis of variance (ANOVA) and the post hoc Dunnett’s multiple comparison test or two-way analysis of variance (ANOVA). […]

For series [2], the target named is T1, GABA-A receptor (α1,β2,γ2) (Homo sapiens, UniProt P14867+P47870).
T1 construct: Eurofins (Poitiers, France), contract assay
Put plainly: Radioligand binding, GABA-A receptor. More on the design: dose or concentration left out as unconfirmed. Conditions: rat cerebral cortex; read-out: % Inhibition of Control Specific Binding, GABA-A Receptor (α1,β2,γ2) (Agonist Radioligand). The method, then: Taking into consideration the structural similarities of molecules described in the current manuscript with their chemical prototypes AS-1 and DK-1, the binding studies toward aforementioned molecular targets were performed commercially for several active substances from each subseries (3, 4, 21, 24, 25, 27, 29, and 30). Furthermore, we also tested two other and well-known targets for AEDs, namely, the Cav2.2 (N-type) calcium channel and gamma-aminobutyric acid (GABA)-A receptor. With the aim of excluding potentially dangerous proarrhythmic properties for each compound, their interaction with the potassium (hERG) channel was also tested.
(§2) Binding studies were carried out commercially in Eurofines Laboratories (Poitiers, France). The functional assays were performed in Eurofins Panlabs Discovery Services Taiwan, Ltd. (New Taipei City, Taiwan). All procedures are described elsewhere (for details, see Table S4 in Supplementary Materials).
(§3) Binding studies were carried out commercially in Eurofines Laboratories (Poitiers, France). The
(§4) functional assays were performed in Eurofins Panlabs Discovery Services Taiwan, Ltd. (New Taipei
(§5) City, Taiwan). All procedures are described elsewhere (Table S4).
Table S4. In vitro binding and functional assays.
GABA-A receptor (α1,β2,γ2)
Potassium channel (hERG) 14
(§6) Cav1.2 (h) calcium ion channel cell based antagonist calcium flux assay 16,17

The next series deals with CYP2C9 (Homo sapiens, UniProt P11712). The series is described as follows: Luminescent CYP2C9 P450-Glo assay. Conditions: 10 and 25 µM.
Series [3] concerns tactile allodynia in OXPT-treated mice. Put plainly: Oxaliplatin (OXPT)-induced peripheral neuropathy, von Frey test. In kind it is in vivo. The protocol: In order to investigate the analgesic activity of the most promising compound 30 in a neuropathic pain model, we tested it in oxaliplatin (OXPT)-induced peripheral neuropathy, in which mechanical and cold allodynia result from impaired function of ion channels, among others. The early phase of neuropathic pain appears hours after OXPT administration, while the late phase develops days after OXPT. Thus, we tested compound 30 3 h and 7 days after the injection of OXPT. We investigated the influence of compound 30 on tactile allodynia using the von Frey method. Three hours after the administration of OXPT we observed a significant decrease in the mean value of force that caused paw withdrawal reaction (1.89 ± 0.04 g) (64.2% of the baseline) compared to nontreated animals (2.94 ± 0.06 g) (the baseline). Seven days after OXPT administration, the pain threshold was 2.00 ± 0.03 (68.0% of the baseline). […] In the late phase, the values of pain threshold were as follows 2.18 ± 0.06 g, 2.60 ± 0.08 g, and 2.91 ± 0.05 g, which correspond to 74.1%, 88.4%, and 98.9% of the baseline value.
as §1
The experimental in vivo procedures were previously reported for the formalin test; compounds 4 and 30 were tested in three doses—40, 80, 120 mg/kg (4), and 20, 40, 80 mg/kg (30). Before formalin application, different groups of animals were injected i.p. with vehicle (10 mL/kg, negative control). The in vivo procedure for the model of capsaicin-induced nociception was previously reported; the animals were pretreated with vehicle (10 mL/kg, negative control) and the dose–response of investigated compounds was evaluated at 40, 80, 120 mg/kg (4), and 20, 40, 80 mg/kg (30). The in vivo procedure for the model of OXPT-induced peripheral neuropathy was previously reported; the mice with developed tactile allodynia were pretreated i.p. with test compound 30 (20, 40, and 80 mg/kg) and vehicle.
Data are presented as means ± standard error of the mean (SEM). The GraphPad Prism Software (v.5) was used to analyze the vast majority of data. Statistically significant differences between groups were calculated using one-way analysis of variance (ANOVA) and the post hoc Dunnett’s multiple comparison test or two-way analysis of variance (ANOVA). The criterion for significance was set at p < 0.05.

The target of the next series is T2, CYP3A4 (Homo sapiens, UniProt P08684).
T2 construct: purchased Promega (Madison, WI, USA)
Put plainly: Luminescent CYP3A4 P450-Glo assay. In kind it is in vitro ADME. Conditions: 1 µM.

In series [4] the target is T3, Cav1.2 (h) calcium ion channel (Homo sapiens, UniProt Q13936).
T3 construct: host or cells: HEK-293
Put plainly: Cav1.2 (h) cell-based antagonist calcium flux assay. The method, then: as §2, §3, §4, §5
Table S4. In vitro binding and functional assays. […]
as §6

Where [5] appears, read: phase II 15–30 min, read-out: ED50, formalin test phase II.
Where [6] appears, read: early phase (3 h after OXPT), 20 mg/kg i.p.
Setting [7] is: early phase (3 h after OXPT), 40 mg/kg i.p.
[8] abbreviates: early phase (3 h after OXPT), 80 mg/kg i.p.
The mark [9] stands for this setting: late phase (7 days after OXPT), 20 mg/kg i.p.
Setting [10] is: late phase (7 days after OXPT), 40 mg/kg i.p.
The mark [11] stands for this setting: late phase (7 days after OXPT), 80 mg/kg i.p.

The structures appear in SMILES notation. Like-named read-outs stand apart in the source and are kept apart here.

T3 sequence (Q13936 whole entry): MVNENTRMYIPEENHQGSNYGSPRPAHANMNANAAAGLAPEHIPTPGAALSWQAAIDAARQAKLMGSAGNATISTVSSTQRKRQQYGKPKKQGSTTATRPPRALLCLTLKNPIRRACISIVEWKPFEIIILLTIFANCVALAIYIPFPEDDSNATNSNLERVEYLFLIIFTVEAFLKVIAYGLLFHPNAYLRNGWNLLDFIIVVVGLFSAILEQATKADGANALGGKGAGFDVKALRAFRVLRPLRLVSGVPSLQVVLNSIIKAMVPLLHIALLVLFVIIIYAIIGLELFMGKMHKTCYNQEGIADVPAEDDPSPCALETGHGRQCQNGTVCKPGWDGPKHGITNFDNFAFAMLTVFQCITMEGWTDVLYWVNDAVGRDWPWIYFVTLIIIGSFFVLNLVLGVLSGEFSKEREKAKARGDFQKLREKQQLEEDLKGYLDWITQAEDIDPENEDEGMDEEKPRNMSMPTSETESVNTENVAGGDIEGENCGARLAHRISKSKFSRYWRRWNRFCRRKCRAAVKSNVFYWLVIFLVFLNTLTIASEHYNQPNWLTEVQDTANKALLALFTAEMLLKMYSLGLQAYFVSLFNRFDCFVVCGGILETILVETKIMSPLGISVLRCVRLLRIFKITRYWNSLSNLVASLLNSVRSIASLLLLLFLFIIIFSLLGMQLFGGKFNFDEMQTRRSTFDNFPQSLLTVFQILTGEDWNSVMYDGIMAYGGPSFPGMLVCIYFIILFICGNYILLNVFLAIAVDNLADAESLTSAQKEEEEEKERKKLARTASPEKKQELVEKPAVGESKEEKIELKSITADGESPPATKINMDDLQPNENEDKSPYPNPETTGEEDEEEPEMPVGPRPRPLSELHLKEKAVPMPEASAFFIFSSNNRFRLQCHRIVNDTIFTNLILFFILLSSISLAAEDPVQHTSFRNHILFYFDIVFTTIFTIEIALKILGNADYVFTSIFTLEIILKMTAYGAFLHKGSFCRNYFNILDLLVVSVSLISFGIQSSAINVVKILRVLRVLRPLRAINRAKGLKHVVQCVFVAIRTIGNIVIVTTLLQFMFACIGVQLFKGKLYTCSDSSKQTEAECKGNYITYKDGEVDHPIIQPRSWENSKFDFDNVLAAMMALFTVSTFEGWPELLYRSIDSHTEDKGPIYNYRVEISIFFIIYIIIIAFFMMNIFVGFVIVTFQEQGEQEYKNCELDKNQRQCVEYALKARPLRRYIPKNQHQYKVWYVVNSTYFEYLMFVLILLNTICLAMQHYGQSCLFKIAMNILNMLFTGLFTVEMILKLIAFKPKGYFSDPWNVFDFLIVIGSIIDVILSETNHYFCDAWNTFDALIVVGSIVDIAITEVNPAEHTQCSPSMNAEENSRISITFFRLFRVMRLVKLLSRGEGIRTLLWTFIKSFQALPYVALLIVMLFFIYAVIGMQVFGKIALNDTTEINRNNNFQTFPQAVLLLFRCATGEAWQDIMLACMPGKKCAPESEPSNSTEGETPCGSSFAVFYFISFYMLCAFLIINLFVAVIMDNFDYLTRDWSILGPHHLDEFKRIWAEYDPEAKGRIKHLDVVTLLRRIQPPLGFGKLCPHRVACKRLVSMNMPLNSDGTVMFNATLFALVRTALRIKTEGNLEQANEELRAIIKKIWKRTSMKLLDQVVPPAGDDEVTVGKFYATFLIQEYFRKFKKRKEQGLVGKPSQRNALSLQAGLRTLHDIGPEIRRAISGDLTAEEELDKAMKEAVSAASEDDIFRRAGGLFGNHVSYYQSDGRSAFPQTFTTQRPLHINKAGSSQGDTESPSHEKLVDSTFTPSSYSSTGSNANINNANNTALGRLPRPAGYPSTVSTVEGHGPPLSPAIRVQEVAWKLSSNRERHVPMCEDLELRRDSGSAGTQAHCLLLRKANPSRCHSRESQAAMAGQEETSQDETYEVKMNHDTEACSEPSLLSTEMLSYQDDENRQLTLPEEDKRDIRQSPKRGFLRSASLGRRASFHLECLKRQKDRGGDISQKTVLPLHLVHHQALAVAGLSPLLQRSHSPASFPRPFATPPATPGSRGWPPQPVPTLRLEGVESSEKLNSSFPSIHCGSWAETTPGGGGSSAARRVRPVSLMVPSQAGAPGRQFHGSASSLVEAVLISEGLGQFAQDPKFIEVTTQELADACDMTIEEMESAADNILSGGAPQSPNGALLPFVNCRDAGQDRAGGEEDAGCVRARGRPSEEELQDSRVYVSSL
T3 sequence (Q08289 whole entry partner): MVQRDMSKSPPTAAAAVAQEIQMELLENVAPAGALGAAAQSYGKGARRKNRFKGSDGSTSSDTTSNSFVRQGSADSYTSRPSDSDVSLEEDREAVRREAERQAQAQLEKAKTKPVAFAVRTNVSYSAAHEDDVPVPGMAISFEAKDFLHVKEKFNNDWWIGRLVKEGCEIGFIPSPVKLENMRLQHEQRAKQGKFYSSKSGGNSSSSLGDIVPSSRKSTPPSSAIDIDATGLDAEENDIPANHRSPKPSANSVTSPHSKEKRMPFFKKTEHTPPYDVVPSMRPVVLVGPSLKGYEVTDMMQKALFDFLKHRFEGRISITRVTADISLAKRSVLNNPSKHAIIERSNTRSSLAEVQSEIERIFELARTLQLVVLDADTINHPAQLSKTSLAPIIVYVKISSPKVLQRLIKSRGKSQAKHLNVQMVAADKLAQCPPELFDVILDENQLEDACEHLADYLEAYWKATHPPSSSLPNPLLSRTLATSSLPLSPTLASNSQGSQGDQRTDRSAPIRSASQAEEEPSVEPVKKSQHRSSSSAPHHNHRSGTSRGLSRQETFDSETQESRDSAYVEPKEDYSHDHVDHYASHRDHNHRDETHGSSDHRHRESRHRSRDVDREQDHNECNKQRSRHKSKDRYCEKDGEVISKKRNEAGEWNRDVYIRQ
T3 sequence (P54289 25-956 partner limits assumed): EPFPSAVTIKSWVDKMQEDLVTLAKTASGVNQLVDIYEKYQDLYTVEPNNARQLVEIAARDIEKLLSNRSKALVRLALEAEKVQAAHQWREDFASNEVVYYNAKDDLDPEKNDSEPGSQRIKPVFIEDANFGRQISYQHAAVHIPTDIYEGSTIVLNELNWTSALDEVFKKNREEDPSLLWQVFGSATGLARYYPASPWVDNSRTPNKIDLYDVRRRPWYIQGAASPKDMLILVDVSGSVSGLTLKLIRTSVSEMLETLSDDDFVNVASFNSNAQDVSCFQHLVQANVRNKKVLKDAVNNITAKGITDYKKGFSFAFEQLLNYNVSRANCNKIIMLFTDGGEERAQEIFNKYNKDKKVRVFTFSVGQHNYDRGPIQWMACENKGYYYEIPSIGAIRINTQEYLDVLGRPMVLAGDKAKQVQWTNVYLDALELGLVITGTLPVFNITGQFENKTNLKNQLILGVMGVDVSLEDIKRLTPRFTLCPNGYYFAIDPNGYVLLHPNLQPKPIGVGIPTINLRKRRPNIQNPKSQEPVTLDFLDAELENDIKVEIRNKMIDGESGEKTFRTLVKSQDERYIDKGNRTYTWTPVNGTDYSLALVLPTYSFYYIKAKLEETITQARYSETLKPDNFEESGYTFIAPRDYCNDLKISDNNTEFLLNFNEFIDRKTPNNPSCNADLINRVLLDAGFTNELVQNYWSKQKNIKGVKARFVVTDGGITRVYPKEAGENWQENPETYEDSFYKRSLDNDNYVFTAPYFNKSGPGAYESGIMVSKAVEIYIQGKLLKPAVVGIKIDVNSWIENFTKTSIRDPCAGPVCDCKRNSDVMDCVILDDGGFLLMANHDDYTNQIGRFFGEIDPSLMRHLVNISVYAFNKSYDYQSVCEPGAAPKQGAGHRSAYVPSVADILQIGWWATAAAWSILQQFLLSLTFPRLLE
T3 sequence (P54289 957-1103 partner limits assumed): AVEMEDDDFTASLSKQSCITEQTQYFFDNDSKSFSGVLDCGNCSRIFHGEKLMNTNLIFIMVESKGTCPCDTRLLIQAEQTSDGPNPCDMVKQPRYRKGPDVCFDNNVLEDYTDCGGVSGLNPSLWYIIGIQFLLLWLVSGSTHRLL
CYP2C9, sequence (P11712 whole entry): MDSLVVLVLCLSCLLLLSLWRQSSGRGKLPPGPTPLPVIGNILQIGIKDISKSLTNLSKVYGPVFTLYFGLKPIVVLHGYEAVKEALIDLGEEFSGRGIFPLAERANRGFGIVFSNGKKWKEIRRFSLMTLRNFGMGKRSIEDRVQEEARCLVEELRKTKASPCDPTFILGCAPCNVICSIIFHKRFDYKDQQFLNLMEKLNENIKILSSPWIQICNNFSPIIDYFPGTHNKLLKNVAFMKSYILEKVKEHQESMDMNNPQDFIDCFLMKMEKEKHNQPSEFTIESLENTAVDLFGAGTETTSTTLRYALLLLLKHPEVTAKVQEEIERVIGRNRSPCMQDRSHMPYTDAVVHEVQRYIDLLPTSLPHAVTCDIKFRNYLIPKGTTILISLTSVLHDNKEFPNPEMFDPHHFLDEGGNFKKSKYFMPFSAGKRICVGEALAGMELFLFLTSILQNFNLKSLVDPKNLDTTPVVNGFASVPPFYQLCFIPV
T2 sequence (P08684 whole entry): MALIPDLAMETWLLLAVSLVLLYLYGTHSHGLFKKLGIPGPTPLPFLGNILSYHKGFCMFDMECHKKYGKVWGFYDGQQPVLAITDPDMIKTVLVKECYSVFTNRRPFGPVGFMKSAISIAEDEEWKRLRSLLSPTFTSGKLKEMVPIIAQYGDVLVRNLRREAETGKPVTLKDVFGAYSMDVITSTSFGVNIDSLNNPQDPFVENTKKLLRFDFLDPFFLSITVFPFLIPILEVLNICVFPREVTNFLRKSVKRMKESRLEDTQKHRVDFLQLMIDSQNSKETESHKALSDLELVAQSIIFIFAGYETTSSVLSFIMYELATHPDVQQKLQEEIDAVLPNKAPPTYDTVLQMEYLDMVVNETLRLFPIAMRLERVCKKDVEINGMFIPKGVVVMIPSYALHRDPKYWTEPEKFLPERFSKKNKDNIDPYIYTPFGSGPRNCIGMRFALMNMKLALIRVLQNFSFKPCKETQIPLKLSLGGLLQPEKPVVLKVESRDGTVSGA

`O=C(Nc1ccccc1F)C(c1ccccc1)N1C(=O)CCC1=O` (stereo not shown) [Compound 4, 2-(2,5-Dioxopyrrolidin-1-yl)-N-(2-fluorophenyl)-2-phenylacetamide] displayed a melting point of 106.6 to 107.1 °C. The ED50 in series [1] (setting [5]) is 98.9 mg/kg. Also, the “attenuation of nociceptive response, formalin test first phase” value in series [1] (i.p., doses 40, 80, 120 mg/kg) is “statistically significant only at the highest dose of 120 mg/kg”. Moreover, the inhibition in series [2] stood at 2.8%. In addition, the “effect on CYP2C9 activity” value at CYP2C9 was “blocked its activity”.
With `O=C(NCCc1cccc(OC(F)(F)F)c1)C(c1ccccc1)N1C(=O)CCC1=O` (stereo not shown) [Compound 30, 2-(2,5-Dioxopyrrolidin-1-yl)-2-phenyl-N-(3-(trifluoromethoxy)phenethyl)acetamide], the melting point was 113.3 to 114.2 °C. Moreover, the median effective dose (ED50) in series [1] (phase I 0–5 min, read-out: ED50, formalin test phase I) turned out to be 21.5 mg/kg. Also, the median effective dose (ED50) in series [1] (setting [5]) turned out to be 24.8 mg/kg. Further, in series [3] (setting [6]), the “pain sensitivity threshold (von Frey, force causing paw withdrawal)” value (“pain sensitivity threshold” below) is on record as 2.26 ± 0.08 g and the “pain threshold, % of the baseline value” is 76.8%. Moreover, in series [3] (setting [7]), the “pain sensitivity threshold” value is given as 2.49 ± 0.05 g and the “pain threshold, % of the baseline value” is 84.7%. Moreover, in series [3] (setting [8]), the “pain sensitivity threshold” value came out at 2.97 ± 0.05 g and the “pain threshold, % of the baseline value” is given as 101.0%. Also, in series [3] (setting [9]), the “pain threshold (von Frey)” value is recorded as 2.18 ± 0.06 g and the “pain threshold, % of the baseline value” is listed as 74.1%. In addition, in series [3] (setting [10]), the “pain threshold (von Frey)” value is 2.60 ± 0.08 g and the “pain threshold, % of the baseline value” came out at 88.4%. In series [3] (setting [11]), the “pain threshold (von Frey)” value was 2.91 ± 0.05 g and the “pain threshold, % of the baseline value” came to 98.9%. At CYP3A4, the “effect on CYP3A4 activity” value is reported as “slightly inhibited CYP3A4 activity”. Moreover, the inhibition in series [2] was determined as 0.3%. The “effect on CYP2C9 activity” value at CYP2C9 is given as “blocked its activity”. Moreover, the “antagonist properties in cell-based flux studies (Cav1.2)” value in series [4] (10 µM) is listed as “moderate antagonist properties”. In series [4] (HEK293, human recombinant (HEK-293 cells), read-out: % Inhibition of Control Agonist Response, Cav1.2 (h) calcium flux), the inhibition at 10 µM is 49%.

These data come from PMC7699745, “The Search for New Anticonvulsants in a Group of (2,5-Dioxopyrrolidin-1-yl)(phenyl)Acetamides with Hybrid Structure—Synthesis and In Vivo/In Vitro Studies” (International Journal of Molecular Sciences, 2020).
